# Test results as given in patent US8703812B2, “Protein synthesis required for long-term memory is induced by PKC activation on days preceding associative learning” (Blanchette Rockefeller Neurosciences Institute, priority 2005, dated 2014).
# Experiments:
# [1] = system: PKC; experiment: Protein kinase C assay (histone phosphorylation) in Hermissenda nervous systems; assay type: in vivo
# Method: Bryostatin exposure—Specimens of Hermissenda Crassicornis were maintained in artificial sea water (ASW) at 15° for three days in perforated 50-ml conical centrifuge tubes before starting experiments. Bryostatin, purified from the marine bryozoan Bugula neritina, was dissolved in EtOH and diluted to its final concentration in ASW. Animals were incubated with bryostatin in ASW for 4 hr, then rinsed with normal ASW. For selected experiments lactacysteine (10 μM) or anisomycin was added to the ASW.
# Cells were homogenized by sonication (5 sec, 25 W) in 100 μl of 10 mM Tris-HCl pH 7.4 buffer containing 1 mM EGTA, 1 mM PMSF, and 50 mM NaF. Homogenate was transferred to a polyallomer centrifuge tube and was centrifuged at 100,000×g for 10 min at 4°. The supernatant was removed and immediately frozen on dry ice. The particulate fraction was resuspended by sonication in 100 μl of the same buffer and stored at −80°. To measure PKC, 10 μl of cytosol or particulate fraction was incubated for 15 min at 37° in the presence of 10 μM histones, 4.89 mM CaCl2, 1.2 μg/μl phosphatidyl-L-serine, 0.18 μg/μl 1,2-dioctanoyl-sn-glycerol, 10 mM MgCl2, 20 mM HEPES (pH 7.4), 0-8 mM EDTA, 4 mM EGTA, 4% glycerol, 8 μg/ml aprotinin, 8 μg/ml leupeptin, and 2 mM benzamidine. 0.5 μCi [γ^32P]ATP was added and ^32P-phosphoprotein formation was measured by adsorption onto phosphocellulose as described previously (25). This assay was used with slight adjustments for either Hermissenda nervous system homogenates or cultured mammalian neuron homogenates
# Intact Hermissenda were exposed for 4 hour intervals to bryostatin (0.28 nM) on successive days under conditions described (“Behavioral Pharmacology”). Histone phosphorylation (See “Methods”) in isolated circumesophageal nervous systems was then measured in the cytosol fraction. […] (FIG. 12, 13). […] After an initial activation (via translocation), this bryostatin effect is most likely due to increased synthesis of PKC, consistent with the increased levels of calexcitin induced by bryostatin, but not directly correlated with repeated bryostatin exposure.
# [2] = system: Rat hippocampal H19-7/IGF-IR cells; experiment: Protein synthesis by [35S]Methionine incorporation; assay type: cell-based; settings: single 30-minute exposure to 0.28 nM bryostatin
# Method: FIG. 17 depicts the effects of bryostatin on protein synthesis. Rat IGF-IR cells were incubated for 30 minutes with 0.28 nM bryostatin for incubation times ranging from 1 to 79 hours. [^35S]Methionine (9.1 μCi) was then added to the medium followed by analysis of radiolabel.
# Rat hippocampal H19-7/IGF-IR cells (ATCC) were plated onto poly-L-lysine coated plates and grown at 35° in DMEM/10% FCS for several days until approx. 50% coverage was obtained. The cells were then induced to differentiate into a neuronal phenotype by replacing the medium with 5 ml N2 medium containing 10 ng/ml basic fibroblast growth factor and grown in T-25 flasks at 39° C. (26). Various concentrations of bryostatin (0.01-1.0 nM) were then added in 10 μl aqueous solution. After a specified interval, the medium was removed and the cells were washed with PBS, removed by gentle scraping, and collected by centrifugation at 1000 rpm for 5 min.
# In fact, we found here that a single 30-minute exposure to 0.28 nM bryostatin increased overall protein synthesis (FIG. 17), measured by incorporation of ^35-S Methionine in the last ½ hour before collecting the neurons, by 20% within 24 h, increasing to 60% by 79 hours after the bryostatin exposure.
# [3] = system: sAPP secretion; settings: human fibroblasts; cited from earlier work
structure (smiles),measurement,setting,value
"CCC/C=C/C=C/C(=O)O[C@H]1/C(=C/C(=O)OC)C[C@H]2C[C@H]([C@@H](C)O)OC(=O)C[C@H](O)C[C@@H]3C[C@H](OC(C)=O)C(C)(C)[C@](O)(C[C@@H]4C/C(=C/C(=O)OC)C[C@H](/C=C/C(C)(C)[C@]1(O)O2)O4)O3 [bryostatin, bryostatin-1]","PKC activity, membrane fraction",[1]; 24 hours after the second of two bryostatin exposures,significantly increased over baseline
same,"PKC activity, cytosol fraction","[1]; bryostatin 0.28 nM 4 hour on successive days, 10 minutes and 24 hours after second of two exposures",significantly increased over baseline levels
same,increase of overall protein synthesis,[2]; by 79 hours,60%
same,increase of overall protein synthesis,[2]; within 24 h,20%
same,alpha-secretase cleavage of APP to sAPP,[3],activate the alpha-secretase
